In patent US5464865A, “4-aryl- and 4-arylthio-5-hydroxy-2(5H)-furanones as inhibitors of phospholipase A2” (Ortho Pharmaceutical Corporation, priority 1993, dated 1995):

Tests used:
[1] = molecular target: T1, human platelet phospholipase A2 (Homo sapiens, UniProt P14555); assay: Inhibition of human platelet phospholipase A2 (14C-oleate E. coli substrate); format: biochemical; settings: for inhibition at 50 µM: read-out: Inhibition of PLA2, % Inhibition @ 50 μM; for IC50: pH 7.0, 37°, 60 min incubation, read-out: Inhibition of PLA2, IC50
T1 construct: a preparation of human platelet phospholipase A2; from tissue; host or cells: human platelets
T1 sequence (P14555 21-144): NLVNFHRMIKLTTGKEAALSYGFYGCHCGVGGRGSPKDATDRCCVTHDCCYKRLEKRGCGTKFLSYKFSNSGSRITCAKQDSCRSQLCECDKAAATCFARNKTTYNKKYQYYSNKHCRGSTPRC
Protocol: The activity of the compounds of the invention against phospholipase A2 is determined using a preparation of human platelet phospholipase A2 with a specific activity of 180 nmol/min/mg as the enzyme source. Polypropylene 15-ml test tubes are utilized as the reaction vessels. All drug samples are run in duplicate, with "blank" and "control" (no test compound) groups run in triplicate. […] Test compounds are dissolved in DMSO, and diluted to a projected final concentration of either 50 or 10 μM in 550 μl HEPES buffer at pH 7.0. A 1:7 dilution of human platelet PLA2 in HEPES buffer (5 μl) is added to each test tube, followed by gentle vortexing for 3 seconds. The reaction tubes containing drug, buffer, and enzyme are preincubated for 15 min at 37°, followed by the addition of 25 μl of ^14 C-oleate E. coli substrate. Details regarding this substrate may be found in a publication by S. Ghosh and R. Franson, Biochem. Cell. Biol., 70, 43 (1992), and references therein.
The tubes are immediately vortexed at moderate speed for 3 sec, followed by a 60 min incubation at 37° in a shaking water bath. The reaction is stopped by the addition of 3 ml of a 1:2 chloroform-methanol mixture. Additional water (1.5 ml) and chloroform (1.0 ml) are added, followed by vortexing. The lower phase is removed with a polypropylene transfer pipette, and transferred to a 13×100 mm polypropylene test tube. The organic solvent is evaporated with a stream of nitrogen, the residue is redissolved in 30 μl of a 9:1 chloroform-methanol mixture, and the solution is spotted on a channeled polyester-backed silica gel TLC plate, such as those available under the trade name PE SIL G available from Whatman Inc, Clifton, N.J.
The plate is developed with an 80:20:1 mixture of petroleum ether-diethyl ether-acetic acid. […] The plate is scored above the origin, cut along the score with scissors, and the reactant (origin) and product portions of each channel are put into separate scintillation vials. To each vial is added a scintillation cocktail (15 ml), preferably that sold under the trademark ECOLUME by ICN Biomedicals, Irvine Calif. The vials are shaken vigorously for 5 sec, and the radioactive ^14 C in each vial is measured with a scintillation counter, which provides the counts-per-minute (cpm) for each sample. The obtained cpm values are corrected for the "blank" values.
The percentage of phospholipid hydrolyzed is calculated by the formula:
Phospholipid converted=100×cpm products / (cpm products+cpm
The inhibition of phospholipase A2 by the test compounds is expressed as a percent inhibition relative to the control group:
% Inhibition=[…]

[2] = system: TPA-induced inflammation in the mouse ear; assay: Topical anti-inflammatory activity: TPA-induced inflammation (edema) in the mouse ear; format: in vivo, mouse (male CD-1); settings: for inhibition in vivo at 100 µg/ear: Mus musculus, @ 100 μg, 5-6 h after TPA
Protocol: The topical anti-inflammatory activity of the compounds is determined by measuring the degree of inhibition of TPA-induced inflammation in the mouse ear, using essentially the procedure of C. Van Arman, Clin. Pharmacol. Ther., 16, 900 (1974). Male CD-1 mice are used at seven to nine weeks of age. 12-O-tetradecanoylphorbol acetate ([…] in 20 μl of acetone) is dispensed onto the dorsum of the left ear of each mouse, and the right ear is left untreated. Ten mice so treated serve as the control group. […]
After five to six hours, the animals are sacrificed by CO2 inhalation, the ears are removed, and 7 mm circular punch biopsies of are taken from each ear and weighed. The difference in biopsy weight between treated and untreated ears is determined, and the degree of anti-inflammatory activity is expressed in terms of the percent inhibition of ear weight increase relative to the control group. In multiple-dose experiments, varying amounts of the compound to be tested are applied along with the TPA and the results are expressed as the ED50, the dose at which a 50% inhibition of weight gain is observed.

[3] = system: PLA2; settings: literature; cited from earlier work

Row | SMILES | inhibition at 50 µM [1] | inhibition in vivo at 100 µg/ear [2] | IC50 [1] | Inhibition of ear edema, IC50 ([2]; multiple-dose experiment, dose for 50% inhibition of weight gain) | inhibition of PLA2 [3] | nature of PLA2 inhibition [3]
1 | O=C1C=C(c2cccc(Oc3ccccc3)c2)C(O)O1 (stereo not shown) [Example 43, 5-Hydroxy-4-(3-phenoxyphenyl)-2(5H)-furanone] | 30% | 52% |  |  |  | 
2 | O=C1C=C(c2ccc(OCc3ccc(C#Cc4ccccc4)cc3)cc2)C(O)O1 (stereo not shown) [Example 44, 5-Hydroxy-4-(4-((4-(2-phenylethynyl)phenyl)methoxy)phenyl)-2(5H)-furanone] | 90% | 43% |  |  |  | 
3 | CCCCCCC#Cc1ccc(C2=CC(=O)OC2O)cc1 (stereo not shown) [Example 54, 5-Hydroxy-4-(4-(1-octynyl)phenyl)-2(5H)-furanone] | 100% | 9% | 5 µM |  |  | 
4 | O=C1C=C(c2ccc(C#Cc3ccccc3)cc2)C(O)O1 (stereo not shown) [Example 55, 5-Hydroxy-4-(4-(2-phenylethynyl)phenyl)-2(5H)-furanone] | 67% | 79% | 19 µM | 37 µg |  | 
5 | CCCCCCCCOc1ccc(SC2=CC(=O)OC2O)cc1 (stereo not shown) [Example 64, 5-Hydroxy-4-(4-(octyloxy)phenylthio)-2(5H)-furanone] | 96% | 48% | 5 µM |  |  | 
6 | CC1=C(CC/C(C)=C/CCC2=CCC(C3=CC(=O)OC3O)OC2O)C(C)(C)CCC1 (stereo not shown) [Manoalide, manoalide] |  |  |  |  | potent inhibitor of PLA2 | irreversible nature of PLA2 inhibition
